Measured values taken from PMC12152147, “DDB1 engagement defines the selectivity of S656 analogs for cyclin K degradation over CDK inhibition” (EMBO Reports, 2025).
Values joined by “and” are separate entries in the source; they are usually repeats but may differ in a detail not shown here. Identical values can stand only once. Like-named read-outs stand apart in the source and are kept apart here. Blank lines part the entries; values can stand above or below the molecule they belong to.

Legend:
OCI-AML5 cells = assay: Dose-response proliferative assay in OCI-AML5 (4 days, CellTiterGlo); type: cell-based, H. sapiens; details: OCI-AML5 cells; read-out: IC50 in AML5
In short: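 OCI-AML5 cells in αMEM, 10% heat-inactivated FBS plus 10 ng/mL GM-CSF, 300 cells/well, exposed to 8-point 1:4 serial dilutions (10 μM down to 0.5 nM). Viability read after 4 days in culture at 37 °C, 5% CO2.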

[1] = system: OCI-AML5 cells expressing shRNAs targeting CDK1, 2, 4, 7, 9, cyclin K; assay: Dose response in OCI-AML5 expressing shRNAs targeting CDK1, 2, 4, 7, 9, cyclin K or control; type: cell-based, H. sapiens; details: for IC50: OCI-AML5, 4 days
[2] = system: OCI-AML5 cells expressing shRNA targeting CUL4A or CUL4B; assay: Dose response in OCI-AML5 expressing shRNAs targeting CUL4A, CUL4B or control; type: cell-based, H. sapiens
primary AML specimens = assay: Dose-response assays in primary AML specimens (6 days, CellTiterGlo); type: cell-based, human; details: 6 days, read-out: IC50
In short: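 Primary AML cells in IMDM/15% BIT with SCF, FLT3L, IL3, G-CSF, SR1 and UM729 were exposed to 8-point 1:4 dilutions (10 μM to 0.5 nM) for 6 days. Viability came from CellTiterGlo luminescence, with % inhibition versus DMSO (0.1%) fitted by nonlinear regression.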

CDK12/Cyclin K = target: T1, CDK12/Cyclin K (Homo sapiens, UniProt Q9NYV4); assay: CDK12/CyclinK in vitro kinase assay (BPS kit, Kinase Glo MAX); type: biochemical; details: for in vitro inhibition of CDK12/Cyclin K activity: in % (unit assumed); for IC50: read-out: IC50, in vitro inhibition of CDK12/Cyclin K activity
T1 construct: purchased BPS Bioscience 78298
T1 sequence (Q9NYV4 whole entry): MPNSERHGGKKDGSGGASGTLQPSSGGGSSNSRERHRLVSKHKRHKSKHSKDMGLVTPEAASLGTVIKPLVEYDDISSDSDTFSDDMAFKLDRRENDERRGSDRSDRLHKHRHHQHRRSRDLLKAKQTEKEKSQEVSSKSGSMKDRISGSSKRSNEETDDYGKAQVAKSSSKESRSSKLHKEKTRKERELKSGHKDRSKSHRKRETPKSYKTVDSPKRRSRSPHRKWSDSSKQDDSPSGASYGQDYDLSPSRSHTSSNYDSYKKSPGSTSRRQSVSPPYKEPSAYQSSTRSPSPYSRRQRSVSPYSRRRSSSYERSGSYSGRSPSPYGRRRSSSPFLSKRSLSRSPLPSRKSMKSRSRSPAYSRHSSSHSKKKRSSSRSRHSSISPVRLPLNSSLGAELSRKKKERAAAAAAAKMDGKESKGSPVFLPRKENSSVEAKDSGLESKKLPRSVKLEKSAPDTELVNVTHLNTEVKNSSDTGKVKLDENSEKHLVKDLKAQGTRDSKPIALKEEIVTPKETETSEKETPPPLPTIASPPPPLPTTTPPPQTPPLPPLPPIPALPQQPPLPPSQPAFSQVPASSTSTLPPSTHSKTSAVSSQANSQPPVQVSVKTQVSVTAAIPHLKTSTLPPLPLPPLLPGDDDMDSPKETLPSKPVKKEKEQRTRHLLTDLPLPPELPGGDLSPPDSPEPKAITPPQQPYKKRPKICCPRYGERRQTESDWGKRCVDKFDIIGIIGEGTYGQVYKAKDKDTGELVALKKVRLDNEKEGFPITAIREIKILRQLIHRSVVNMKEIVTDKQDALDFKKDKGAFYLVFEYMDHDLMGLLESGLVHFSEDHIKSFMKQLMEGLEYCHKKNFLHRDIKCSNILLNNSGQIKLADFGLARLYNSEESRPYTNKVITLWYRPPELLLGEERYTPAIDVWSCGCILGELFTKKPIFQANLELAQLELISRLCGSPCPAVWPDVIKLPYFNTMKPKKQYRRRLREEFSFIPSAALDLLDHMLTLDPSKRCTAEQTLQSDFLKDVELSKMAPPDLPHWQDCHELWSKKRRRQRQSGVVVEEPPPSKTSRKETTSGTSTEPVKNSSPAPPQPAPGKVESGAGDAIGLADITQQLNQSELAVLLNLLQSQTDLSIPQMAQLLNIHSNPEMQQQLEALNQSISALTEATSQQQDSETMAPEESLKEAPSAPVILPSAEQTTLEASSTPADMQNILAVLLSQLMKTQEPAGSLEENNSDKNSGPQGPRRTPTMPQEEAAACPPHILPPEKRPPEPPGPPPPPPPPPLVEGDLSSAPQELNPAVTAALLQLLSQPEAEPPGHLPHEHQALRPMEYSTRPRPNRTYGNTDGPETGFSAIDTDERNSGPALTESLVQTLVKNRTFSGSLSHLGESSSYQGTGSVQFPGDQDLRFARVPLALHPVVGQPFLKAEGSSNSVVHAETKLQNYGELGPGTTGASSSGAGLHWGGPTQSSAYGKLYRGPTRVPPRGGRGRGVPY
T1 sequence (O75909 whole entry partner): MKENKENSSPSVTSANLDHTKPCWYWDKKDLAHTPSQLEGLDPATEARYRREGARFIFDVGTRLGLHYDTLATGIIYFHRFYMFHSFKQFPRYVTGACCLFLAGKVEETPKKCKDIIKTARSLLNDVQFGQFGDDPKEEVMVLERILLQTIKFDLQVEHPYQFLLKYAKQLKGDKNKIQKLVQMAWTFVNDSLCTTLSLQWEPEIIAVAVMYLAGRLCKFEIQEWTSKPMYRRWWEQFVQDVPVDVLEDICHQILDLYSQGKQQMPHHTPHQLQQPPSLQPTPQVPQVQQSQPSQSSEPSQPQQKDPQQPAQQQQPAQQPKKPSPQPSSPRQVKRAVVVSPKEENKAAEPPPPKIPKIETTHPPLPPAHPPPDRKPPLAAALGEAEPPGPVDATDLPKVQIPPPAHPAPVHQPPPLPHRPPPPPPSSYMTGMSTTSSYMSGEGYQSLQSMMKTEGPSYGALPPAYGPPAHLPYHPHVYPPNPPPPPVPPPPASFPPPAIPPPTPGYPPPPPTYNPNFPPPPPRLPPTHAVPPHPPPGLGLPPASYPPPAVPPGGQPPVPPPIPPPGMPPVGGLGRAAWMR
Method: (§1) Kinase activity was assessed using the kinase assay kits from BPS Bioscience for CDK1, CDK9 and CDK12 with Kinase Glo MAX in duplicates. Compounds were tested at a single concentration of 1 μM for CDK1 and CDK9 activity, and in a dilution ranging from 0.64 nM to 50 μM for CDK12 activity. Chemiluminescence was read using the Neo Synergy BioTek plate reader.

CDK1 = target: T2, CDK1 (Homo sapiens, UniProt P06493); assay: CDK1 in vitro kinase activity, single concentration 1 μM; type: biochemical; details: single concentration 1 μM
T2 construct: purchased BPS Bioscience 79597
T2 sequence (P06493 whole entry): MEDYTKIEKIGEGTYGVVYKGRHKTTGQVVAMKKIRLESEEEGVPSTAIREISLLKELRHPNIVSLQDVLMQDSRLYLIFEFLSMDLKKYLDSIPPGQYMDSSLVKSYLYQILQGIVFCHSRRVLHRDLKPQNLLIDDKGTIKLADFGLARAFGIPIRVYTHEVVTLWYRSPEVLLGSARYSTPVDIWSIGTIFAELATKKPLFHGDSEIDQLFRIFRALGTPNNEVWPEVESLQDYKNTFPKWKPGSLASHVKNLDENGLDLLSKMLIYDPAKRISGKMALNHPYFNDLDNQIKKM
T2 sequence (P14635 whole entry partner): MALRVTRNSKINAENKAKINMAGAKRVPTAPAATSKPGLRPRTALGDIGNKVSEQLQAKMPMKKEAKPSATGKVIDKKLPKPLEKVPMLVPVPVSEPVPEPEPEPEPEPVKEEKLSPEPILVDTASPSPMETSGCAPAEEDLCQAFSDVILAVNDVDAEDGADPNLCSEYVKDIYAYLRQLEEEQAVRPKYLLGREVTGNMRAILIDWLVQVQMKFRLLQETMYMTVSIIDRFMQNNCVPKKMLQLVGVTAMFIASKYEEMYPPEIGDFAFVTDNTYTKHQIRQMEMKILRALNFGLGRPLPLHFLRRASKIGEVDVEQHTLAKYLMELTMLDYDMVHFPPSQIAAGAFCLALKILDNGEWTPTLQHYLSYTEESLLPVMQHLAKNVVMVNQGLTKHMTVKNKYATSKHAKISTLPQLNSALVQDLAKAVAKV
Method: as §1

cyclin KeGFP = assay: Cyclin KeGFP reporter system (eGFP/mCherry MFI by flow cytometry);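 on % degradation cyclin K-eGFP: 10 μM compound for 3 h relative to DMSO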; type: cell-based, H. sapiens; details: for MFI of cyclin KeGFP over mCherry: OCI-AML5 G7 clone, 3 h, 10 μM, normalized to DMSO (=100)
In short: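 OCI-AML5 clone G7 carrying lentiviral cyclin KeGFP/mCherry reporter. eGFP and mCherry geometric MFI measured by flow cytometry; eGFP/mCherry ratio normalized to DMSO-treated cells.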

CDK9/CyclinT = target: T3, CDK9/CyclinT (Homo sapiens, UniProt P50750); assay: CDK9/CyclinT in vitro kinase activity, single concentration 1 μM; type: biochemical; details: single concentration 1 μM
T3 construct: purchased BPS Bioscience 79628
T3 sequence (P50750 whole entry): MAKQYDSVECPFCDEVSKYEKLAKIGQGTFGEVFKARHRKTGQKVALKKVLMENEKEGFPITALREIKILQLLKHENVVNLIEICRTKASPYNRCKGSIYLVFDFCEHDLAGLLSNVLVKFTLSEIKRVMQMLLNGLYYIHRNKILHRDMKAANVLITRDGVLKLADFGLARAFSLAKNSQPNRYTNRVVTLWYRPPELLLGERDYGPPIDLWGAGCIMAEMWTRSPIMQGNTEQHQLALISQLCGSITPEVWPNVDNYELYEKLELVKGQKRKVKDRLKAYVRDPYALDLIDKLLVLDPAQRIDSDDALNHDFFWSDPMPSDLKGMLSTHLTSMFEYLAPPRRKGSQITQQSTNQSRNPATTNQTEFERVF
T3 sequence (O60563 whole entry partner): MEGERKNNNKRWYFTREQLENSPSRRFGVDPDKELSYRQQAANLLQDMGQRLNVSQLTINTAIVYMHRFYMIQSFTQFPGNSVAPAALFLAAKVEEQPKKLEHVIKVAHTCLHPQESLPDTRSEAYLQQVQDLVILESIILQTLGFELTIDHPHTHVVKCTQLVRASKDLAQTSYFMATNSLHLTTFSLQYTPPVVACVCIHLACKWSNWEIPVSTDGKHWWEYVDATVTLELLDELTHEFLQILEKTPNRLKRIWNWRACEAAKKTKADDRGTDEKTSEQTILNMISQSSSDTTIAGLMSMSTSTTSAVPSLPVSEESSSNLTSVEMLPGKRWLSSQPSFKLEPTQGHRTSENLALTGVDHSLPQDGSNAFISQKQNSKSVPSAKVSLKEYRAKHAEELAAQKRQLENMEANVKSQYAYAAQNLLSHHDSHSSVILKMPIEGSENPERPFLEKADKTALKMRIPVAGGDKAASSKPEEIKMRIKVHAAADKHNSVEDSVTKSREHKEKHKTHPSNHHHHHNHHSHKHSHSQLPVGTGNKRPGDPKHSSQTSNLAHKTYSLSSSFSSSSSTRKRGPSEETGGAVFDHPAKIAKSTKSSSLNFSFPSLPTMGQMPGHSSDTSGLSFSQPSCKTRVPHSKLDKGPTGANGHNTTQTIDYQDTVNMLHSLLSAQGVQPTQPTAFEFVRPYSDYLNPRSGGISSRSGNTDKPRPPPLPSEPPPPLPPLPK
Method: as §1

IC50 (OCI-AML5 cells): 1070 nM
IC50 ([1]; read-out: IC50, sh CDK1): 1500 nM and 2300 nM and 2010 nM
IC50 ([1]; read-out: IC50, sh CDK2): 1310 nM and 1750 nM and 2460 nM
IC50 ([1]; read-out: IC50, sh CDK4): 1240 nM and 1300 nM and 1980 nM
IC50 ([1]; read-out: IC50, sh CDK7): 1090 nM and 1800 nM and 1930 nM
IC50 ([1]; read-out: IC50, sh CDK9): 1110 nM and 1360 nM and 1320 nM
IC50 ([1]; read-out: IC50, sh Cyclin K): 429 nM and 562 nM and 546 nM
IC50 ([1]; read-out: IC50, sh ctrl): 1070 nM and 1220 nM and 1040 nM
in vitro inhibition of CDK12/Cyclin K activity (CDK12/Cyclin K; Log10 (uM) 1.69897): 45.8 and 46.66 and 37.27
IC50 (CDK12/Cyclin K): > 50000 nM
% CDK1 inhibition (CDK1): 0%
% CDK9 inhibition (CDK9/CyclinT): 0%
Compound: Cc1cccc(Nc2nc(CC(=O)Nc3ncc(C)s3)cs2)n1 [HQ461]
Class ([1]; class from shRNA IC50 profile and cyclin K-eGFP degradation): 1
Ratio shCUL4A/shCTRL ([2]; ratio of IC50 in shCUL4A vs shCTRL OCI-AML5 cells): 4.25
IC50 (primary AML specimens; primary AML specimen 03H109): 883 nM
IC50 (primary AML specimens; primary AML specimen 04H055): 2010 nM
IC50 (primary AML specimens; primary AML specimen 04H096): 1220 nM
IC50 (primary AML specimens; primary AML specimen 04H138): 2260 nM
IC50 (primary AML specimens; primary AML specimen 05H113): 974 nM
IC50 (primary AML specimens; primary AML specimen 05H149): 1170 nM
IC50 (primary AML specimens; primary AML specimen 05H193): 1260 nM
IC50 (primary AML specimens; primary AML specimen 06H088): 1320 nM
IC50 (primary AML specimens; primary AML specimen 06H117): 1200 nM
IC50 (primary AML specimens; primary AML specimen 06H151): 677 nM
IC50 (primary AML specimens; primary AML specimen 07H003): 2350 nM
IC50 (primary AML specimens; primary AML specimen 07H131): 2900 nM
IC50 (primary AML specimens; primary AML specimen 07H144): 983 nM
IC50 (primary AML specimens; primary AML specimen 07H155): 2460 nM
IC50 (primary AML specimens; primary AML specimen 08H018): 2240 nM
IC50 (primary AML specimens; primary AML specimen 08H021): 1030 nM
IC50 (primary AML specimens; primary AML specimen 08H056): 2300 nM
IC50 (primary AML specimens; primary AML specimen 08H063): 2420 nM
IC50 (primary AML specimens; primary AML specimen 08H085): 1050 nM
IC50 (primary AML specimens; primary AML specimen 08H108): 2180 nM
IC50 (primary AML specimens; primary AML specimen 08H118): 873 nM
IC50 (primary AML specimens; primary AML specimen 09H016): 869 nM
IC50 (primary AML specimens; primary AML specimen 09H070): 2340 nM
IC50 (primary AML specimens; primary AML specimen 10H014): 529 nM
IC50 (primary AML specimens; primary AML specimen 10H046): 1050 nM
IC50 (primary AML specimens; primary AML specimen 10H107): 1400 nM
IC50 (primary AML specimens; primary AML specimen 10H127): 1920 nM
IC50 (primary AML specimens; primary AML specimen 10H161): 1220 nM
IC50 (primary AML specimens; primary AML specimen 10H174): 950 nM
IC50 (primary AML specimens; primary AML specimen 11H008): 1540 nM
IC50 (primary AML specimens; primary AML specimen 11H019): 1320 nM
IC50 (primary AML specimens; primary AML specimen 11H170): 3060 nM
IC50 (primary AML specimens; primary AML specimen 11H217): 1690 nM
IC50 (primary AML specimens; primary AML specimen 11H232): 1460 nM
IC50 (primary AML specimens; primary AML specimen 12H033): 2450 nM
IC50 (primary AML specimens; primary AML specimen 12H055): 1470 nM
IC50 (primary AML specimens; primary AML specimen 12H148): 1880 nM
IC50 (primary AML specimens; primary AML specimen 13H053): 2280 nM
IC50 (primary AML specimens; primary AML specimen 15H045): 931 nM
IC50 (primary AML specimens; primary AML specimen 17H065): 1420 nM
MFI of cyclin KeGFP over mCherry (cyclin KeGFP): 20.9 and 23.4 and 22.9 and 21.1 and 21.0
% degradation cyclin K-eGFP (cyclin KeGFP; cyclin K-eGFP reporter): 79%

in vitro inhibition of CDK12/Cyclin K activity (CDK12/Cyclin K; Log10 (uM) 0.30103): 95.76 and 74.16 and 142.36
in vitro inhibition of CDK12/Cyclin K activity (CDK12/Cyclin K; Log10 (uM) -1.09691): 64.02 and 71.5 and 108.97
in vitro inhibition of CDK12/Cyclin K activity (CDK12/Cyclin K; Log10 (uM) -1.79588): 50.36 and 51.42 and 41.9
in vitro inhibition of CDK12/Cyclin K activity (CDK12/Cyclin K; Log10 (uM) -2.49485): 37.5 and 37.15 and 28.34
IC50 (CDK12/Cyclin K): 29 nM
Compound: CN(C)C/C=C/C(=O)Nc1ccc(C(=O)N2CCC[C@@H](Nc3ncc(Cl)c(-c4c[nH]c5ccccc45)n3)C2)cc1 [THZ531]
potency upon CUL4A or CUL4B downregulation (for SNS-032, THZ531 also DDB1 depletion) ([2]; OCI-AML5, 4 days): remained unaffected
IC50 (primary AML specimens; Homo sapiens, 144 h, primary AML specimen 03H109): 48.9 nM
IC50 (primary AML specimens; Homo sapiens, 144 h, primary AML specimen 04H055): 45.2 nM
IC50 (primary AML specimens; Homo sapiens, 144 h, primary AML specimen 04H096): 44.4 nM
IC50 (primary AML specimens; Homo sapiens, 144 h, primary AML specimen 04H138): 70.6 nM
IC50 (primary AML specimens; Homo sapiens, 144 h, primary AML specimen 05H113): 70.4 nM
IC50 (primary AML specimens; Homo sapiens, 144 h, primary AML specimen 05H149): 411 nM
IC50 (primary AML specimens; Homo sapiens, 144 h, primary AML specimen 05H193): 73.1 nM
IC50 (primary AML specimens; Homo sapiens, 144 h, primary AML specimen 06H088): 50 nM
IC50 (primary AML specimens; Homo sapiens, 144 h, primary AML specimen 06H117): 42.8 nM
IC50 (primary AML specimens; Homo sapiens, 144 h, primary AML specimen 06H151): 103 nM
IC50 (primary AML specimens; Homo sapiens, 144 h, primary AML specimen 07H003): 49.5 nM
IC50 (primary AML specimens; Homo sapiens, 144 h, primary AML specimen 07H131): 734 nM
IC50 (primary AML specimens; Homo sapiens, 144 h, primary AML specimen 07H144): 53.8 nM
IC50 (primary AML specimens; Homo sapiens, 144 h, primary AML specimen 07H155): 125 nM
IC50 (primary AML specimens; Homo sapiens, 144 h, primary AML specimen 08H018): 292 nM
IC50 (primary AML specimens; Homo sapiens, 144 h, primary AML specimen 08H021): 27.7 nM
IC50 (primary AML specimens; Homo sapiens, 144 h, primary AML specimen 08H056): 170 nM
IC50 (primary AML specimens; Homo sapiens, 144 h, primary AML specimen 08H063): 67.2 nM
IC50 (primary AML specimens; Homo sapiens, 144 h, primary AML specimen 08H085): 42.1 nM
IC50 (primary AML specimens; Homo sapiens, 144 h, primary AML specimen 08H108): 48.5 nM
IC50 (primary AML specimens; Homo sapiens, 144 h, primary AML specimen 08H118): 596 nM
IC50 (primary AML specimens; Homo sapiens, 144 h, primary AML specimen 09H016): 121 nM
IC50 (primary AML specimens; Homo sapiens, 144 h, primary AML specimen 09H070): 155 nM
IC50 (primary AML specimens; Homo sapiens, 144 h, primary AML specimen 10H014): 237 nM
IC50 (primary AML specimens; Homo sapiens, 144 h, primary AML specimen 10H046): 319 nM
IC50 (primary AML specimens; Homo sapiens, 144 h, primary AML specimen 10H107): 164 nM
IC50 (primary AML specimens; Homo sapiens, 144 h, primary AML specimen 10H127): 48.2 nM
IC50 (primary AML specimens; Homo sapiens, 144 h, primary AML specimen 10H161): 46.6 nM
IC50 (primary AML specimens; Homo sapiens, 144 h, primary AML specimen 10H174): 146 nM
IC50 (primary AML specimens; Homo sapiens, 144 h, primary AML specimen 11H008): 47.1 nM
IC50 (primary AML specimens; Homo sapiens, 144 h, primary AML specimen 11H019): 174 nM
IC50 (primary AML specimens; Homo sapiens, 144 h, primary AML specimen 11H170): 798 nM
IC50 (primary AML specimens; Homo sapiens, 144 h, primary AML specimen 11H217): 46.2 nM
IC50 (primary AML specimens; Homo sapiens, 144 h, primary AML specimen 11H232): 296 nM
IC50 (primary AML specimens; Homo sapiens, 144 h, primary AML specimen 12H033): 127 nM
IC50 (primary AML specimens; Homo sapiens, 144 h, primary AML specimen 12H055): 51.7 nM
IC50 (primary AML specimens; Homo sapiens, 144 h, primary AML specimen 12H148): 242 nM
IC50 (primary AML specimens; Homo sapiens, 144 h, primary AML specimen 13H053): 160 nM
IC50 (primary AML specimens; Homo sapiens, 144 h, primary AML specimen 15H045): 273 nM
IC50 (primary AML specimens; Homo sapiens, 144 h, primary AML specimen 17H065): 1080 nM
MFI of cyclin KeGFP over mCherry (cyclin KeGFP): 103.0 and 93.3 and 92.2 and 93.5
